From PubChem BioAssay (NCI)
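Protocol summary: plate cells (96-well), add compound at 5 concentrations, incubate 48 h, interpolate endpoints linearly. GI50 is the concentration that inhibits growth by half. Definition used: TGI = concentration required for complete inhibition of growth.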

Tests used:
Test in all cases: growth of human tumour cells (NCI), 48 h
A498 renal = tested on: A498 renal
OVCAR-8 ovarian = tested on: OVCAR-8 ovarian
RPMI-8226 leukemia = tested on: RPMI-8226 leukemia
MOLT-4 leukemia = tested on: MOLT-4 leukemia
PC-3 prostate = tested on: PC-3 prostate
SN12C renal = tested on: SN12C renal
TK-10 renal = tested on: TK-10 renal
HCC-2998 colon = tested on: HCC-2998 colon
OVCAR-5 ovarian = tested on: OVCAR-5 ovarian
SF-295 CNS = tested on: SF-295 CNS

| SMILES | TGI (A498 renal) [µM] | TGI (OVCAR-8 ovarian) [µM] | TGI (RPMI-8226 leukemia) [µM] | TGI (MOLT-4 leukemia) [µM] | TGI (PC-3 prostate) [µM] | TGI (SN12C renal) [µM] | TGI (TK-10 renal) [µM] | TGI (HCC-2998 colon) [µM] | TGI (OVCAR-5 ovarian) [µM] | TGI (SF-295 CNS) [µM] | GI50 (RPMI-8226 leukemia) [µM] |
| --- | --- | --- | --- | --- | --- | --- | --- | --- | --- | --- | --- |
| Clc1cc(OCC23CC4CC(CC(C4)C2)C3)nc(OCC23CC4CC(CC(C4)C2)C3)n1 | > 100 | > 100 | > 100 | > 100 | > 100 | > 100 | > 100 | > 100 | > 100 | > 100 |  |
| CN(C)CCNC(=O)c1cccc2[nH]c(-c3ccncc3)nc12 | 19.8 | > 40.2 | 21.5 | > 100 | > 24.3 | > 76.3 | 16.9 | 4.34 | 34.1 | 7.97 |  |
| COc1ccc(-c2nnc(CCCCCCCCc3nnc(-c4ccc(OC)cc4)n3N)n2N)cc1 | > 100 | > 31.6 | > 100 | > 100 | > 100 | > 100 | > 100 | > 100 | > 100 | > 100 |  |
| COC(=O)C(Cc1ccccc1)NC(=O)c1ccc(CNC(=S)NCc2cccc(CNC(=S)NCc3ccccc3)c2)cc1 (stereo unspecified) | > 62.5 | > 62.5 | > 62.5 | > 62.5 | > 62.5 | > 62.5 | > 62.5 | > 62.5 | > 62.5 | > 62.5 |  |
| CCCCCC(O)(CCCCC)CCCCCCCCC1=C(O)c2ccccc2C(=O)C1=O | 21.5 | 33 | 11.5 | 12.4 | 24.6 | 23.5 | > 75.5 | 30.5 | 46.1 | 40.5 |  |
| CSC1(SC)N2Cc3ccccc3N=C2C1(c1ccccc1)c1ccccc1 | > 46.9 | > 79.6 | 97.1 | > 44.9 | > 100 | > 64.1 | > 100 | 23.2 | > 77.9 | > 100 |  |
| CC(O)c1cc2c(s1)C(=O)c1scc(C(C)O)c1C2=O (stereo unspecified) | 4.36 | 0.857 | 0.626 | 5.4 | 3.48 | 0.44 | 3.37 | 3.46 | 3.37 | 0.364 |  |
| COc1ccc(CCNC(=O)CCCCCO)cc1OC | > 100 | > 100 | > 100 | > 100 | > 100 | > 100 | > 100 | > 100 | > 100 | > 100 |  |
| S=c1nc2sc3c(c2c(Nc2ccc(Br)cc2)[nH]1)CCN(N1CCc2c(sc4nc(=S)[nH]c(Nc5ccc(Br)cc5)c24)C1)C3 | 31.3 | > 50 | > 50 | > 50 | > 50 | > 50 | > 50 | > 50 | > 50 | > 50 |  |
| O=[N+]([O-])c1ccc2nc(/C=C(\O)c3ccccc3)c(/C=C(\O)c3ccccc3)nc2c1 | > 86.2 | 42 | 61.7 | 40.5 | > 100 | > 100 | 63 | > 100 | > 100 | 48.3 | 5.21 |
| COc1ccc2c(c1)CC1(O)COc3cc(OC)ccc3C1O2 (stereo unspecified) | > 100 | > 100 | > 100 | > 100 | > 100 | > 100 | > 100 | > 100 | > 100 | > 100 |  |
| O=C(NN1C(=O)CSC1c1ccco1)c1ccncc1 (stereo unspecified) | > 100 | > 100 | > 100 | > 100 | > 100 | > 100 | > 100 | > 100 | > 100 | > 100 |  |
| COc1cccc2c1-c1c(OC)cccc1SS2 | 27.4 | 72.6 | 59.2 | 38.1 | > 100 | 30.3 | 51.1 | 49.3 | 40.9 | 43.6 |  |
| CN(C)CCCNc1cnc2cc3ccccc3cc2n1 | > 100 | 59.4 | 82.2 | 81.7 | 45.6 | > 100 | 78.2 | 35.1 | 81.9 | 52.4 |  |
| COc1ccc(N2C(N)=C(C#N)C(C#N)(C#N)C2c2cccc([N+](=O)[O-])c2)cc1 (stereo unspecified) | 29.9 | 32.8 | 42.5 | 25.7 | 32.4 | 30.8 | 30.9 | 31.8 | 34.5 | 39.5 |  |
| CCOC(=O)C1=CC(C)(C(=O)OCC)Nc2c(nc(SC)n(C)c2=O)N1 (stereo unspecified) | > 10 | > 10 | > 10 | > 10 | > 10 | > 10 | > 10 | > 10 | > 10 | > 10 |  |
| COC12OC3CC4(C)C(=CC3OC(OC(C)C1O)C2O)CCC1C4CCC2(C)C(c3ccc(=O)oc3)CCC12O (stereo unspecified) | 0.0144 | 0.00318 | 0.00409 | < 0.001 | 0.00214 | 0.00153 | 0.00216 | 0.00945 | 0.00327 | 0.447 |  |
